From patent US7285666B2, “Pyrazolo[1,5-a] pyridines and medicines containing the same” (Eisai R&D Management Co., Ltd., priority 2001, dated 2007)

Columns and labels:
[1] = tested on: CRF-dependent cAMP production in AtT-20 cells; assay: cAMP production inhibition experiment using AtT-20 cells; type: cell-based; conditions: Mus musculus, AtT20, 30 nM CRF, intracellular cAMP by HTRF, read-out: Adenylate cyclase activity IC50
From the text: <cAMP Production Inhibition Experiment Using AtT-20 Cells>
The AtT-20 cells were of a mouse pituitary gland tumor-derived cell line which is known to respond to Corticotropin-Releasing Factor (CRF), leading to activation of the intracellular adenylate cyclase system, production of cyclic AMP (cAMP), and release of adenocorticotropic hormone (ACTH) (Biochem. Biophys. Res. Com. 106, 1364-1371, 1982). For the experiment, the cells (1×10^5) were suspended in D-MEM medium (0.1% FBS) and seeded in a 96-well plate, phosphodiesterase inhibitor (IBMX, Calbiochem) was added to a final concentration of 1 mM, and were cultured at 37° C. for 30 minutes. A dilution of the test compound was added, culturing was continued for 30 minutes at 37° C., and CRF (30 nM) was added and culturing was continued for 30 minutes at 37° C. The cells were collected by centrifugation (500×g, 5 minutes) and lysed with lysis buffer (0.2% dodecyltrimethylammonium bromide), and the intracellular cAMP production was quantified by the HTRF method. A cAMP kit HTRF (CIS Diagnostics Co., Ltd.) was used for the cAMP quantification.
(2) Calculation of cAMP Production Inhibition
The cAMP production of cells to which 30 nM CRF had been added was defined as 100% (control), and the value for each specimen was represented as a percentage (% of control).

[2] = biological target: T1, human CRFR1 (Homo sapiens, UniProt P34998); assay: CRFR binding experiment (125I-sauvagine SPA, membrane fraction of CRFR1-expressing HEK293 cells); conditions: 125I-sauvagine displacement, read-out: CRF1 receptor binding affinity IC50
T1 construct: The full-length CRFR1 gene was obtained from a human brain cDNA library (QuickClone™, Clontech) by PCR; expressed in transfected cells
T1 sequence (P34998 24-415): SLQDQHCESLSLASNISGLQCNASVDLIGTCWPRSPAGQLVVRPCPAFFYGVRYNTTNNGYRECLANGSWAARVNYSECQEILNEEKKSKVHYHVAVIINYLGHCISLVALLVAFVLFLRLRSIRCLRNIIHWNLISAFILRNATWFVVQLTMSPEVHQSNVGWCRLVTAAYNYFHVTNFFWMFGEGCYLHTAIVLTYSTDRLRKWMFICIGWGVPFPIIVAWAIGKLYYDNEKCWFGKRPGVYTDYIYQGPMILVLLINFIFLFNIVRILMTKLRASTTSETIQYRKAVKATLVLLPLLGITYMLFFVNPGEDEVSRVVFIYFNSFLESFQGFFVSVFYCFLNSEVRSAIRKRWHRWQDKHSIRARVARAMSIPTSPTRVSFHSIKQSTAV
Procedure: <CRFR Binding Experiment>
(1) Preparation of CRFR-Expressing Cells
Membrane fraction of the cell highly expressing human CRFR1 was used as the experimental material for a CRFR binding experiment. The CRFR expressing cells were prepared in the following manner. The full-length CRFR1 gene was obtained from a human brain cDNA library (QuickClone™, Clontech) by PCR. The obtained DNA fragments were inserted into cloning vectors and the base sequences were determined. cDNA having the correct base sequence was then relinked to an expression vector (pcDNA3.1™, Invitrogen). The CRFR1 expression vector was introduced into HEK293 cells, and the resistant cells which grew in cell medium containing G418 (1 mg/ml) were cloned by limiting dilution. From these cloned cells, the clones with high binding affinity between the membrane fraction and sauvagine per unit of protein in the binding experiment described below were selected out and used for the final experiment.
(2) Preparation of Membrane Fraction
The cloned cells obtained in (1) were collected and disrupted with an ultrasonic generator in sonicate buffer (D-PBS(−) 10 mM MgCl2, 2 mM EGTA). The suspension obtained from ultrasonic disruption was centrifuged (46,000×g, 10 minutes), and the precipitate was resuspended in sonicate buffer and the same procedure was repeated. The final precipitate was then suspended in binding buffer (D-PBS(−) 10 mM MgCl2, 2 mM EGTA, 1.5% BSA, 0.15 mM bacitracin, 1× protease inhibitor cocktail (COMPLETE™, Boehringer)), and used as the membrane fraction after adjusting the protein concentration to 1.6 mg/ml.
The sauvagine binding experiment was conducted following the protocol of SPA™ (Amersham Pharmacia), using a 96-well plate. The experiment was conducted according to the SPA beads instruction manual. After allowing […] of the membrane fraction protein, 0.5 mg of SPA beads and […] of ^125I-sauvagine (Amersham Pharmacia) to stand at room temperature for 2 hours in the presence of the test compound, the mixture was centrifuged (1000×g, 5 minutes) and the radioactivity of each well was measured with a TopCount™ (Packard).
(4) Calculation of Binding Affinity
The radioactivity for non-radioactive sauvagine added in a 1000-fold excess was subtracted from each value as the non-specific binding, and the radioactivity of a sample without addition of the test substance (control) was defined as 100%, with each value represented as a percentage (% of control).

SMILES | IC50 [1] [nM] | IC50 [2] [nM]
CCCN(CCC)c1c(CC)nn2c(-c3ccc(OC)cc3Cl)cccc12 [Example 3, N-[7-(2-Chloro-4-methoxyphenyl)-2-ethylpyrazolo[1,5-a]pyridin-3-yl]-N,N-dipropylamine] | 130 | 
CCCN(CCOC)c1c(CC)nn2c(-c3ccc(Cl)cc3Cl)cccc12 [Example 25, N-[7-(2,4-Dichlorophenyl)-2-ethylpyrazolo[1,5-a]pyridin-3-yl]-N-(2-methoxyethyl)-N-propylamine] | 550 | 210
CCCN(CCC)c1c(SC)nn2c(-c3ccc(Cl)cc3Cl)cccc12 [Example 103, N-[7-(2,4-Dichlorophenyl)-2-methylthiopyrazolo[1,5-a]pyridin-3-yl]-N,N-dipropylamine] | 400 | 90

Results, then the compound that gave them:

IC50 [1] [nM] | IC50 [2] [nM] | SMILES
200 | 160 | CCCN(CCC)c1c(CC)nn2c(-c3ccc(OC)cc3OC)cccc12 [Example 6, N-[7-(2,4-Dimethoxyphenyl)-2-ethylpyrazolo[1,5-a]pyridin-3-yl]-N,N-dipropylamine]
300 | 55 | CCc1nn2c(-c3ccc(Cl)cc3Cl)cccc2c1N(CCOC)CC(C)C [Example 27, N-[7-(2,4-Dichlorophenyl)-2-ethylpyrazolo[1,5-a]pyridin-3-yl]-N-isobutyl-N-(2-methoxyethyl)amine]
20 | 50 | COCCN(CC(C)C)c1c(SC)nn2c(-c3c(C)cc(C)cc3OC)cccc12 [Example 108, N-Isobutyl-N-[7-(2-methoxy-4,6-dimethylphenyl)-2-(methylsulfanyl)pyrazolo[1,5-a]pyridin-3-yl]-N-(2-methoxyethyl)amine]
